Data from patent publication US10988459B2 (priority 2015, dated 2021).
pKi: −log10 of the molar value.

The compounds below were run against human RIP1 kinase domain (2-375) (Homo sapiens (Human), UniProt Q13546) (assay: biochemical). Conditions: tight-binding apparent inhibition constant; human RIP1 kinase domain (2-375) 50 nM, 50 uM ATP, 2 hours; read-out: Ki.
Type: biochemical
Method in brief: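 50 nM purified kinase domain from baculovirus-infected insect cells, incubated 2 h with compound in 50 mM Hepes pH 7.5, 30 mM MgCl2, 1 mM DTT, 50 uM ATP, 0.002% Brij-35, 0.5% DMSO. ADP formation read by Transcreener FP at 633 nm excitation. Ki^app fitted with the Morrison tight-binding equation.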

human RIP1 kinase domain (2-375), sequence (Q13546 2-375): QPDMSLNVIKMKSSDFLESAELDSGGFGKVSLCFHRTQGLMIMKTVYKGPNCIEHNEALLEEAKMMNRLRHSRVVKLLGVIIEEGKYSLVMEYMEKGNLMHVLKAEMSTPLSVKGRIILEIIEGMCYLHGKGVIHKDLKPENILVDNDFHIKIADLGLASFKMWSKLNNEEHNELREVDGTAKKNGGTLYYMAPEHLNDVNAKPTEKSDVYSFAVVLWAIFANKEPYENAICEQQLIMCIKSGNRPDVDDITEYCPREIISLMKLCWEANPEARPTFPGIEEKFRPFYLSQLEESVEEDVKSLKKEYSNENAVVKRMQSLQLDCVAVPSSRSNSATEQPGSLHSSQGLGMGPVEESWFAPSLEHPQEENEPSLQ

| SMILES | pKi |
| --- | --- |
| CN1C(=O)[C@@H](NC(=O)c2ncn(CC3CCC(F)(F)C3)n2)CCn2nc(C3CC3)cc21 (stereo partly shown) [Example 594] | 6.38 |
| CN1C(=O)[C@@H](NC(=O)c2ncc3cnn(-c4c(F)cccc4F)c3n2)COc2ccccc21 [Example 595] | 8.33 |
| CC(C)n1ncc2cnc(C(=O)N[C@H]3COc4cc(F)cc(F)c4NC3=O)nc21 [Example 605, 1-isopropyl-N-[(3S)-6,8-difluoro-4-oxo-3,5-dihydro-2H-1,5-benzoxazepin-3-yl]pyrazolo[3,4-d]pyrimidine-6-carboxamide] | 8.02 |
| Cc1cc(F)c2c(c1)OC[C@H](NC(=O)c1ncc3cnn(C(C)C)c3n1)C(=O)N2 [Example 606, 1-isopropyl-N-[(3S)-6-fluoro-8-methyl-4-oxo-3,5-dihydro-2H-1,5-benzoxazepin-3-yl]pyrazolo[3,4-d]pyrimidine-6-carboxamide] | 8.32 |
| CC(C)n1ncc2cnc(C(=O)N[C@H]3CCc4cc(F)cc(F)c4NC3=O)nc21 [Example 607, 1-isopropyl-N-[(3S)-7,9-difluoro-2-oxo-1,3,4,5-tetrahydro-1-benzazepin-3-yl]pyrazolo[3,4-d]pyrimidine-6-carboxamide] | 7.55 |
| Cc1cc2n(n1)CC[C@H](NC(=O)c1ncc3cnn(-c4c(F)cccc4F)c3n1)C(=O)N2C [Example 609, 1-(2,6-difluorophenyl)-N-[(6S)-2,4-dimethyl-5-oxo-7,8-dihydro-6H-pyrazolo[1,5-a][1,3]diazepin-6-yl]pyrazolo[3,4-d]pyrimidine-6-carboxamide] | 7.15 |
| Cc1cc2n(n1)CC[C@H](NC(=O)c1nc3n(n1)[C@@H](c1ccccc1)CC3)C(=O)N2C [Example 615, (5R)-5-phenyl-N-[(6S)-2,4-dimethyl-5-oxo-7,8-dihydro-6H-pyrazolo[1,5-a][1,3]diazepin-6-yl]-6,7-dihydro-5H-pyrrolo[1,2-b][1,2,4]triazole-2-carboxamide] | 7.96 |
| CN1C(=O)[C@@H](NC(=O)c2ncc3c(n2)C2(CCC2)OC3)COc2ccccc21 [Example 616, N-[(3S)-5-methyl-4-oxo-2,3-dihydro-1,5-benzoxazepin-3-yl]spiro[5H-furo[3,4-d]pyrimidine-7,1′-cyclobutan]-2-carboxamide] | 8.24 |
| O=C(N[C@H]1COc2cc(F)cc(F)c2NC1=O)c1ncc2c(n1)C1(CCC1)OC2 [Example 617, N-[(3S)-6,8-difluoro-4-oxo-3,5-dihydro-2H-1,5-benzoxazepin-3-yl]spiro[5H-furo[3,4-d]pyrimidine-7,1′-cyclobutane]-2-carboxamide] | 7.96 |
| O=C(N[C@H]1CCc2cc(F)cc(F)c2NC1=O)c1ncc2c(n1)C1(CCC1)OC2 [Example 618] | 7.62 |
| CCC[C@]1(C)OCc2cnc(C(=O)N[C@H]3COc4cc(F)cc(F)c4NC3=O)nc21 [Example 619, (7S)-7-methyl-7-propyl-N-[(3S)-6,8-difluoro-4-oxo-3,5-dihydro-2H-1,5-benzoxazepin-3-yl]-5H-furo[3,4-d]pyrimidine-2-carboxamide] | 6.74 |
| CCC[C@@]1(C)OCc2cnc(C(=O)N[C@H]3COc4cc(F)cc(F)c4NC3=O)nc21 [Example 620, (7R)-7-methyl-7-propyl-N-[(3S)-6,8-difluoro-4-oxo-3,5-dihydro-2H-1,5-benzoxazepin-3-yl]-5H-furo[3,4-d]pyrimidine-2-carboxamide] | 7.85 |
| O=C(N[C@H]1COc2cc(F)cc(F)c2NC1=O)c1nc2n(n1)[C@@H](c1ccccc1)CC2 [Example 621, (5R)-5-phenyl-N-[(3S)-6,8-difluoro-4-oxo-3,5-dihydro-2H-1,5-benzoxazepin-3-yl]-6,7-dihydro-5H-pyrrolo[1,2-b][1,2,4]triazole-2-carboxamide] | 8.51 |
| O=C(N[C@H]1CCc2cc(F)cc(F)c2NC1=O)c1nc2n(n1)[C@@H](c1ccccc1)CC2 [Example 622, (5R)-5-phenyl-N-[(3S)-7,9-difluoro-2-oxo-1,3,4,5-tetrahydro-1-benzazepin-3-yl]-6,7-dihydro-5H-pyrrolo[1,2-b][1,2,4]triazole-2-carboxamide] | 8.30 |
| CN1C(=O)[C@@H](NC(=O)c2nc3n(n2)[C@@H](c2ccccc2)CC3)COc2ccccc21 [Example 623, (5R)-5-phenyl-N-[(3S)-5-methyl-4-oxo-2,3-dihydro-1,5-benzoxazepin-3-yl]-6,7-dihydro-5H-pyrrolo[1,2-b][1,2,4]triazole-2-carboxamide] | 8.47 |
| CN1C(=O)[C@@H](NC(=O)c2nc3n(n2)CCO[C@@H]3c2ccccc2F)COc2ccccc21 [Example 629, (8R)-8-(2-fluorophenyl)-N-[(3S)-5-methyl-4-oxo-2,3-dihydro-1,5-benzoxazepin-3-yl]-6,8-dihydro-5H-[1,2,4]triazolo[5,1-c][1,4]oxazine-2-carboxamide] | 7.85 |
| O=C(N[C@H]1CCc2cc(F)cc(F)c2NC1=O)c1nc2n(n1)CCO[C@H]2c1ccccc1F [Example 630, (8S)-8-(2-fluorophenyl)-N-[(3S)-7,9-difluoro-2-oxo-1,3,4,5-tetrahydro-1-benzazepin-3-yl]-6,8-dihydro-5H-[1,2,4]triazolo[5,1-c][1,4]oxazine-2-carboxamide] | 7.52 |
| CN1C(=O)[C@@H](NC(=O)c2ncc3cnn(-c4ccccn4)c3n2)COc2ccccc21 [Example 631, 1-(2-pyridyl)-N-[(3S)-5-methyl-4-oxo-2,3-dihydro-1,5-benzoxazepin-3-yl]pyrazolo[3,4-d]pyrimidine-6-carboxamide] | 6.80 |
| Cc1cc2n(n1)CC[C@H](NC(=O)c1ncc3cnn(-c4ccccn4)c3n1)C(=O)N2C [Example 632, 1-(2-pyridyl)-N-[(6S)-2,4-dimethyl-5-oxo-7,8-dihydro-6H-pyrazolo[1,5-a][1,3]diazepin-6-yl]pyrazolo[3,4-d]pyrimidine-6-carboxamide] | 5.51 |
| Cc1cc2n(n1)CC[C@@H](NC(=O)c1ncc3cnn(-c4ccccn4)c3n1)C(=O)N2C [Example 633, 1-(2-pyridyl)-N-[(6R)-2,4-dimethyl-5-oxo-7,8-dihydro-6H-pyrazolo[1,5-a][1,3]diazepin-6-yl]pyrazolo[3,4-d]pyrimidine-6-carboxamide] | 5.42 |

Results, then the compound that gave them:

| pKi | SMILES |
| --- | --- |
| 6.15 | Cc1cc2n(n1)CC[C@H](NC(=O)c1ncn(Cc3ccccc3C#N)n1)C(=O)N2C [Example 590, 1-[(2-cyanophenyl)methyl]-N-(6S)-2,4-dimethyl-5-oxo-7,8-dihydro-6H-pyrazolo[1,5-a][1, 3]diazepin-6-yl-1,2,4-triazole-3-carboxamide] |
| 7.77 | Cc1cc2n(n1)CC[C@H](NC(=O)c1ncn(Cc3ccccc3C)n1)C(=O)N2C [Example 591, 1-(o-tolylmethyl)-N-(6S)-2,4-dimethyl-5-oxo-7,8-dihydro-6H-pyrazolo[1,5-a][1,3]diazepin-6-yl-1,2,4-triazole-3-carboxamide] |
| 7.32 | COc1ccccc1Cn1cnc(C(=O)N[C@H]2CCn3nc(C4CC4)cc3N(C)C2=O)n1 [Example 592] |
| 7.10 | CN1C(=O)[C@@H](NC(=O)c2ncn(Cc3ccccc3C#N)n2)CCn2nc(C3CC3)cc21 [Example 593] |
| 7.00 | Cc1nc(C)n2c1N(C)C(=O)[C@H](NC(=O)c1ncn(Cc3ccccc3F)n1)CC2 [Example 596, 1-[(2-fluorophenyl)methyl]-N-(3R)-1,7,9-trimethyl-2-oxo-4,5-dihydro-3H-imidazo[1,5-a][1,3]diazepin-3-yl-1,2,4-triazole-3-carboxamide] |
| 6.89 | Cc1nc(C)n2c1N(C)C(=O)[C@H](NC(=O)c1ncn(Cc3c(F)cccc3F)n1)CC2 [Example 597, 1-[(2,6-difluorophenyl)methyl]-N-(3R)-1,7,9-trimethyl-2-oxo-4,5-dihydro-3H-imidazo[1,5-a][1,3]diazepin-3-yl-1,2,4-triazole-3-carboxamide] |
| 6.89 | Cc1nc(C)n2c1N(C)C(=O)[C@H](NC(=O)c1ncn(Cc3cc(F)ccc3F)n1)CC2 [Example 598, 1-[(2,5-difluorophenyl)methyl]-N-(3R)-1,7,9-trimethyl-2-oxo-4,5-dihydro-3H-imidazo[1,5-a][1,3]diazepin-3-yl-1,2,4-triazole-3-carboxamide] |
| 7.46 | CN1C(=O)[C@H](NC(=O)c2ncn(Cc3ccccc3F)n2)CCn2cncc21 [Example 599, 1-[(2-fluorophenyl)methyl]-N-(3R)-1-methyl-2-oxo-4,5-dihydro-3H-imidazo[1,5-a][1,3]diazepin-3-yl-1,2,4-triazole-3-carboxamide] |
| 7.30 | CN1C(=O)[C@H](NC(=O)c2ncn(Cc3c(F)cccc3F)n2)CCn2cncc21 [Example 600, 1-[(2,6-difluorophenyl)methyl]-N-[(3R)-1-methyl-2-oxo-4,5-dihydro-3H-imidazo[1,5-a][1,3]diazepin-3-yl]-1,2,4-triazole-3-carboxamide] |
| 7.37 | CN1C(=O)[C@H](NC(=O)c2ncn(Cc3ccccc3F)n2)CCn2ccnc21 [Example 601, 1-[(2-fluorophenyl)methyl]-N-(7R)-9-methyl-8-oxo-6,7-dihydro-5H-imidazo[1,2-a][1,3]diazepin-7-yl-1,2,4-triazole-3-carboxamide] |
| 7.51 | CN1C(=O)[C@H](NC(=O)c2ncn(Cc3c(F)cccc3F)n2)CCn2ccnc21 [Example 602, 1-[(2,6-difluorophenyl)methyl]-N-[(7R)-9-methyl-8-oxo-6,7-dihydro-5H-imidazo[1,2-a][1,3]diazepin-7-yl]-1,2,4-triazole-3-carboxamide] |
| 6.43 | CN1C(=O)[C@@H](NC(=O)c2ncn(Cc3ccccc3C#N)n2)CCn2nccc21 [Example 603, 1-[(2-cyanophenyl)methyl]-N-(6S)-4-methyl-5-oxo-7,8-dihydro-6H-pyrazolo[1,5-a][1,3]diazepin-6-yl-1,2,4-triazole-3-carboxamide] |
| 7.68 | Cc1ccccc1Cn1cnc(C(=O)N[C@H]2CCn3nc(C4CC4)cc3N(C)C2=O)n1 [Example 604] |
| 6.72 | Cc1nc(C)n2c1N(C)C(=O)[C@H](NC(=O)c1ncn(Cc3ccccc3)n1)CC2 [Example 608, 1-benzyl-N-(3R)-1,7,9-trimethyl-2-oxo-4,5-dihydro-3H-imidazo[1,5-a][1,3]diazepin-3-yl-1,2,4-triazole-3-carboxamide] |
